Laboratory results: patent publication US8993717B2, “Gadd45beta targeting agents” (Imperial Innovations Limited, priority 2009, dated 2015)
Where two headings read alike, the source gives them in different places. Square brackets hold non-standard residues; d marks the D form. Peptide text beside a SMILES is read from it. * marks the point of attachment. Cbz = O=C(OCc1ccccc1)*

Assays:
BMSCs, PBMNCs and MSCs = assay: Viability/proliferation of primary untransformed human cells; format: cell-based; settings: up to 100 μM; 48 hrs or 144 hrs
Protocol: In order to determine the in vitro therapeutic index of Z-/mDTPs, viability and proliferation assays were also performed with primary untransformed cells of both human and mouse origin, after treatment with either 10 μM or 100 μM of Z-DTP1, Z-DTP2 and Z-DNC. To this end, bone marrow stromal cells (BMSCs) peripheral blood mononuclear cells (PBMNCs) and mesenkymal stem cells (MSCs) were purified from healthy individuals after Ficoll-Hypaque density separation, in accordance with the protocols reported in the reference by Piva R. et all 2008 Blood 111: 2765-2775). BMSCs, PBMNCs, and MSCs cells were then treated for the times indicated and with the peptide concentrations specified in FIGS. 15A and 15B. To further establish the specificity of the cytotoxic activity of Z-/mDTPs for cancer cells, we also used primary B and T lymphocytes purified from the spleen and lymph nodes of mice, respectively, essentially as described in the reference by Shirakawa et al 2010 Cell Mal immunology 1-12. B and T cells were then activated by simulation with 1 ng/mL of LPS for 16 hrs and subsequently treated with 100 μM of Z-DTP1, Z-DTP2 or Z-DNC for 72 hrs as shown in FIG. 15B.

[1] = tested on: KMS11 multiple myeloma cells; assay: [3H]thymidine incorporation assay in KMS11; format: cell-based, human; settings: read-out: IC50 [H^3] thymidine incorporation assay in KMS11
Protocol: Cultures of multiple myeloma cells and treatments with Z-DTPs were carried out as described in Example 8 (see below). The effects of Z-DTPs on the survival/proliferation of multiple myeloma cells were evaluated by the use of [^3H]thymidine) incorporation assays, performed as also described in Example 8. The amount of cell proliferation measured with each of the Z-DTPs' concentrations used and with the untreated cultures (i.e. cultures incubated with medium alone), was expressed as counts per minute (c.p.m.)—which directly correlate with the extent of cell proliferation. All experiments were performed in triplicate.
In these latter assays, the effects of Z-DTPs, Ac-DTPs and Z-LTPs on the survival/proliferation of tumour cell lines was investigated by measuring DNA synthesis using standard tritiated thymidine ([^3H]thymidine; [^3H]-TdR) uptake assays. In the analyses shown, cells were incubated for 24, 72, 120 or 144 hrs at 37° C. in the presence or absence of control or bioactive tetrapeptides, as indicated, then subjected to an additional incubation for 18 hrs with [^3H]-TdR (0.037 MBq/well, equivalent to […]). Cells were subsequently harvested onto glass fibre filter mats using a 96-well plate automated cell harvester, after which scintillation fluid was added, and [^3H]thymidine incorporation measured by liquid scintillation spectroscopy on a beta counter. The results are expressed as the percentages of the counts per minute (c.p.m.) (directly correlating with the extent of cell proliferation) measured with tetrapeptide-treated cultures relative to the c.p.m. measured with the corresponding cultures incubated with medium alone (untreated cells). All experiments were performed in triplicate.

MKK7 = target: T1, MKK7 (Homo sapiens, UniProt O14733); assay: MKK7 kinase assay in the absence of Gadd45β; format: biochemical; settings: 1 nM or 5 nM peptide
T1 construct: expressed in transfected cells; host or cells: HEK-293
T1 sequence (O14733 1-419): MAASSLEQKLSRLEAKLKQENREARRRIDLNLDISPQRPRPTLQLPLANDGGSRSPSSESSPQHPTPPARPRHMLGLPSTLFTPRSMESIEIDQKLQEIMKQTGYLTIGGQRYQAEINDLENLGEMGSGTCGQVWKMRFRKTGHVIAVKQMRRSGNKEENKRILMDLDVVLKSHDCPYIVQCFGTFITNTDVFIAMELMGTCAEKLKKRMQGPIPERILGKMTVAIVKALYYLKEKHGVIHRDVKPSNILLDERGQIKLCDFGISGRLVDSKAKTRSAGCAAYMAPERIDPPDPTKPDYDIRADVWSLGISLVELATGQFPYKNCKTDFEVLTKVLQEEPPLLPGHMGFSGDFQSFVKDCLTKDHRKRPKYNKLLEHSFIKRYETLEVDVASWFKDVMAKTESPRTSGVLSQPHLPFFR
Protocol: In FIG. 6, transient transfection of pcDNA-FLAG-MKK7 in HEK-293 cells was performed using the method of Ca3(PO4)2 precipitation, essentially as described in Papa, S et al., (2004) Nat. Cell Biol. 6, 146-153 and references therein. 36 hrs after transfection, the cells were treated with 100 ng/ml phorbol 12-myristate 13-acetate (PMA) and 1 μM ionomycin for 30 min at 37° C. Cell extracts were prepared as described in example 4 and used for immunoprecipitation with anti-FLAG antibodies (binding to FLAG-MKK7) as described in Papa, S et al., (2004) Nat. Cell Biol. 6, 146-153 and references therein. Briefly, 50 μg of cell lysate from PMA-ionomycin (P/D-treated or untreated, HEK-293 cells transiently expressing FLAG-MKK7 was incubated with 10 μl of anti-FLAG M2 Affinity Gel (SIGMA) for 4 hrs at 4° C. during rotation. The immunoprecipitates were then washed 3 times in lysis buffer and twice more in kinase buffer (10 mM HEPES, 5 mM MgCl2, 1 mM MnCl2,12.5 mM β-glycerophosphate, 2 mM DTT, 4 mM NaF and 0.1 mM Na3VO4). MKK7 catalytic activity was finally measured in kinase assays by incubating FLAG-MKK7 immunoprecipitates at 30° C. for 20 min with 20 μl of kinase buffer containing 2 μM of recombinant GST-JNK1 and 5 μCi of [γ-^32P]ATP) (kinase reaction), as described in Papa, S et a., (2004) Nat. Cell Biol. 6, 146-153 and references therein. […]

## NC(=O)[C@@H](Cc1ccccc1)NC(=O)[C@@H](Cc1c[nH]cn1)NC(=O)[C@@H](CC(=O)O)NC(=O)[C@@H](Cc1ccc(O)cc1)NC(=O)OCc1ccccc1 [Compound 1, Z-Tyr-Asp-His-Phe-NH2] (Cbz-[dY][dD][dH][dF]-NH2)
BMSCs, PBMNCs and MSCs
  toxicity to normal primary human cells (BMSCs, PBMNCs, MSCs): no toxicity

## N=C(N)NCCC[C@@H](NC(=O)[C@@H](CCC(=O)O)NC(=O)[C@@H](Cc1ccc(O)cc1)NC(=O)OCc1ccccc1)C(=O)N[C@H](Cc1ccccc1)C(N)=O [Compound 9, Z-D-Tyr-D-Glu-D-Arg-D-Phe-NH2] (Cbz-[dY][dE][dR][dF]-NH2)
[1]; Day 1, listed as Z-DTP2
  IC50: 2880 nM
[1]; Day 1
  IC50: 2900 nM
[1]; Day 3
  IC50: 25.7 nM
[1]; Day 6
  IC50: 66 nM
BMSCs, PBMNCs and MSCs
  toxicity to normal primary human cells (BMSCs, PBMNCs, MSCs): no toxicity

## CC(=O)N[C@H](Cc1ccc(O)cc1)C(=O)N[C@H](CCCNC(=N)N)C(=O)N[C@H](Cc1ccccc1)C(N)=O [Compound 17, Ac-D-Tyr-D-Arg-D-Phe-NH2] (Ac-[dY]-[dR]-[dF]-NH2)
[1]; Day 1
  IC50: 1000 nM
[1]; Day 6, listed as mDTP3
  IC50: 16 nM
[1]; Day 6
  IC50: 25 nM

## CC(=O)N[C@H](Cc1ccc(O)cc1)C(=O)N[C@H](CC(=O)O)C(=O)N[C@H](Cc1c[nH]cn1)C(=O)N[C@H](Cc1ccccc1)C(N)=O [DTP1, Acetyl-(D-Tyr)-(D-Asp)-(D-His)-(D-Phe)-NH2] (Ac-[dY][dD][dH][dF]-NH2)
MKK7
  inhibition of MKK7 catalytic activity in the absence of Gadd45β: nor the active tetrapeptides, DTP1 and DTP2, afforded any inhibition

## CC(=O)N[C@H](Cc1ccc(O)cc1)C(=O)N[C@H](CCC(=O)O)C(=O)N[C@H](CCCNC(=N)N)C(=O)N[C@H](Cc1ccccc1)C(N)=O [DTP2, Acetyl-(D-Tyr)-(D-Glu)-(D-Arg)-(D-Phe)-NH2] (Ac-[dY][dE][dR][dF]-NH2)
MKK7
  inhibition of MKK7 catalytic activity in the absence of Gadd45β: nor the active tetrapeptides, DTP1 and DTP2, afforded any inhibition
